In brackets after ≈: the same amount, converted by molar mass. Where a SMILES comes first, the peptide text is derived from it. Bridges are numbered along the chain shown (N, C = ends). Roman numbers before positions name the chains, in order. [ ]: non-standard residue; d: D form. The star is where a group is joined. Tyrosinol = OC[C@H](Cc1ccc(O)cc1)N*; Tle = CC(C)(C)[C@H](N)C(=O)O; Hiv = CC(C)[C@H](O)C(=O)O; dDab = NCC[C@@H](N)C(=O)O; hSer = N[C@@H](CCO)C(=O)O; Dab = NCC[C@H](N)C(=O)O; Abu = CC[C@H](N)C(=O)O; Dap = NC[C@H](N)C(=O)O
How the values were obtained:
[1] = tested on: human red blood cells (hRBC); assay: Hemolysis; type: cell-based; details: red cells of human, 1 h, 200
Outline: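 Read-out is supernatant absorbance at 540 nm, normalised to full lysis by 2% Triton X-100 and zero lysis by PBS with 10% water. Peptides (200 μg/mL) were exposed to 20% v/v washed human erythrocytes at 37° C for 1 h under shaking.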

[2] = tested on: male ICR mice; assay: Tolerability in a mouse model (Maximum Tolerated Dose assay); type: in vivo; details: groups of 3
Outline: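 Peptides in 0.9% NaCl (pH 6.5-7.6) given s.c. at 30 or 40 mg/kg, twice 12 h apart, to groups of 3 male ICR mice (23±3 g). Acute toxic signs (mortality, convulsions, tremors, sedation) and autonomic effects (diarrhea, salivation, piloerection) observed for 30 min after each dose.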

[3] = tested on: Escherichia coli ATCC 25922; type: cell-based; details: ATCC 25922
Outline: (§1)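 Broth microdilution per CLSI; MH-II (cation-adjusted) + 0.002% P-80 final; ~10^6 CFU/mL inoculum; 2-fold peptide series; 35° C, 18-20 h; MIC = no visible growth, μg/mL.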

[4] = tested on: Escherichia coli 926415; type: cell-based; details: 926415
Outline: as §1

[5] = tested on: Pseudomonas aeruginosa ATCC 27853; type: cell-based; details: ATCC 27853
Outline: as §1

[6] = tested on: Klebsiella pneumoniae 968733; type: cell-based; details: 968733
Outline: as §1

[7] = tested on: Klebsiella pneumoniae SSI #3010; type: cell-based; details: SSI #3010
Outline: as §1

[8] = tested on: Acinetobacter baumannii DSM 30008; type: cell-based; details: DSM 30008
Outline: as §1

[9] = tested on: Acinetobacter baumannii 872842; type: cell-based; details: 872842
Outline: as §1

[10] = tested on: Enterobacter cloacae 848840; type: cell-based; details: 848840
Outline: as §1

[11] = 2 × 40 mg/kg s.c. at a 12-hr interval
[12] = 2 × 30 mg/kg s.c. at a 12-hr interval

Row | SMILES | Hemolysis at 200 μg/mL [1] [%] | Mortality and dose [2, 11] | MIC [3] [µg/mL] | MIC [4] [µg/mL] | MIC [5] [µg/mL] | MIC [6] [µg/mL] | MIC [7] [µg/mL] | MIC [8] [µg/mL] | MIC [9] [µg/mL] | MIC [10] [µg/mL] | Escherichia coli ATCC 25922 MIC [3] [µg/mL] | Pseudomonas aeruginosa ATCC 27853 MIC [5] [µg/mL] | Klebsiella pneumoniae SSI #3010 MIC [7] [µg/mL] | Acinetobacter baumannii DSM 30008 MIC [8] [µg/mL] | Mortality and dose [2, 12]
1 | CC(=O)N[C@H](C(=O)N[C@H]1CSSC[C@@H](C(=O)N[C@@H](CO)C(N)=O)NC(=O)[C@H](C(C)C)NC(=O)[C@H](CCN)NC(=O)[C@H](Cc2c[nH]c3ccccc23)NC(=O)[C@H](CO)NC(=O)[C@@H](CO)NC(=O)[C@H](CCC(=O)N[C@@H](CCN)C(=O)N[C@H](C(=O)N[C@@H](CN)C(=O)N[C@H]2CCNC(=O)[C@H]([C@@H](C)O)NC(=O)[C@H](CCN)NC(=O)[C@H](CCN)NC(=O)[C@H](CC(C)C)NC(=O)[C@@H](CC(C)C)NC(=O)[C@H](CCN)NC2=O)[C@@H](C)O)NC(=O)[C@H](CCN)NC(=O)[C@H](Cc2ccc(O)cc2)NC1=O)C(C)C [Ex. 296] (I: Ac-VCY[Dab]E[dS]SW[Dab]VCS-NH2 / II: [Dab]T[Dap][Dab][Dab][dL]L[Dab][Dab]T; disulfide I:2-I:11; amide I:5-II:N; lactam II:4-II:C) | <1 | 0/3 died at 2 × 40 mg/kg | 0.125 (≈ 0.0521 µM) | 0.5 (≈ 0.208 µM) | 0.25 (≈ 0.104 µM) | 4 (≈ 1.67 µM) | 0.0625 (≈ 0.0261 µM) | 0.125 (≈ 0.0521 µM) | 0.25 (≈ 0.104 µM) | 0.5 (≈ 0.208 µM) |  |  |  |  | 
2 | CC(=O)N[C@H](C(=O)N[C@H]1CSSC[C@@H](C(=O)N[C@@H](CO)C(N)=O)NC(=O)[C@H](C(C)C)NC(=O)[C@H](CO)NC(=O)[C@H](Cc2c[nH]c3ccccc23)NC(=O)[C@H](CCC(=O)N[C@@H](CCN)C(=O)N[C@H](C(=O)N[C@@H](CN)C(=O)N[C@H]2CCNC(=O)[C@H]([C@@H](C)O)NC(=O)[C@H](CCN)NC(=O)[C@H](CCN)NC(=O)[C@H](CC(C)C)NC(=O)[C@@H](CC(C)C)NC(=O)[C@H](CCN)NC2=O)[C@@H](C)O)NC(=O)[C@@H](CCN)NC(=O)[C@H]([C@@H](C)O)NC(=O)[C@H](CCN)NC(=O)[C@H](Cc2ccc(O)cc2)NC1=O)C(C)C [Ex. 364] (I: Ac-VCY[Dab]T[dDab]EWSVCS-NH2 / II: [Dab]T[Dap][Dab][Dab][dL]L[Dab][Dab]T; disulfide I:2-I:11; amide I:7-II:N; lactam II:4-II:C) | <1 | 0/3 died at 2 × 40 mg/kg |  | 0.25 (≈ 0.104 µM) |  | 0.125 (≈ 0.0518 µM) |  |  | 0.125 (≈ 0.0518 µM) | 0.125 (≈ 0.0518 µM) | 0.0625 | 0.125 | 0.0625 | 0.0625 | 
3 | CC(=O)N[C@H](C(=O)N[C@H]1CSSC[C@@H](C(=O)N[C@@H](CO)C(N)=O)NC(=O)[C@H](C(C)C)NC(=O)[C@H](CO)NC(=O)[C@H](Cc2c[nH]c3ccccc23)NC(=O)[C@H](CO)NC(=O)[C@@H](CCN)NC(=O)[C@H](CCC(=O)N[C@H](CCN)C(=O)N[C@H](C(=O)N[C@@H](CN)C(=O)N[C@H]2CCNC(=O)[C@H]([C@@H](C)O)NC(=O)[C@H](CCN)NC(=O)[C@H](CCN)NC(=O)[C@H](CC(C)C)NC(=O)[C@@H](CC(C)C)NC(=O)[C@H](CCN)NC2=O)[C@@H](C)O)NC(=O)[C@H](CCN)NC(=O)[C@H](Cc2ccc(O)cc2)NC1=O)C(C)C [Ex. 310] (I: Ac-VCY[Dab]E[dDab]SWSVCS-NH2 / II: [dDab]T[Dap][Dab][Dab][dL]L[Dab][Dab]T; disulfide I:2-I:11; amide I:5-II:N; lactam II:4-II:C) | <1 | 0/3 died at 2 × 40 mg/kg |  | 0.0625 (≈ 0.0261 µM) |  | 0.0625 (≈ 0.0261 µM) |  |  | 0.0625 (≈ 0.0261 µM) | 0.0625 (≈ 0.0261 µM) | 0.03125 | 0.125 | 0.0625 | 0.0625 | 
4 | CC[C@@H]1NC(=O)[C@@H](CC(C)C)NC(=O)[C@H](CCN)NC(=O)[C@@H](NC(=O)[C@H](CN)NC(=O)[C@@H](NC(=O)[C@H](CCN)NC(=O)CC[C@@H]2NC(=O)[C@H](CCN)NC(=O)[C@H](Cc3ccc(O)cc3)NC(=O)[C@@H](NC(=O)[C@@H](NC(C)=O)C(C)C)CSSC[C@@H](C(=O)N[C@@H](CO)C(N)=O)NC(=O)[C@H](C(C)C)NC(=O)[C@H](CCN)NC(=O)[C@H](Cc3c[nH]c4ccccc34)NC(=O)[C@H](CO)NC(=O)[C@@H](CCN)NC2=O)[C@@H](C)O)CCNC(=O)[C@H]([C@@H](C)O)NC(=O)[C@H](CCN)NC(=O)[C@H](CCN)NC1=O [Ex. 300] (I: Ac-VCY[Dab]E[dDab]SW[Dab]VCS-NH2 / II: [Dab]T[Dap][Dab][Dab][dL][Abu][Dab][Dab]T; disulfide I:2-I:11; amide I:5-II:N; lactam II:4-II:C) | <1 | 0/3 died at 2 × 40 mg/kg |  | 0.25 (≈ 0.105 µM) |  | 2 (≈ 0.839 µM) |  |  | 1 (≈ 0.419 µM) | 0.125 (≈ 0.0524 µM) | 0.125 | 0.125 | 0.0625 | 0.125 | 
5 | CC(C)C[C@@H]1NC(=O)[C@@H](CC(C)C)NC(=O)[C@H](CCN)NC(=O)[C@@H](NC(=O)[C@H](CN)NC(=O)[C@@H](NC(=O)[C@H](CCN)NC(=O)CC[C@@H]2NC(=O)[C@H](CCN)NC(=O)[C@H](Cc3ccc(O)cc3)NC(=O)[C@@H](NC(=O)[C@@H](O)C(C)C)CSSC[C@@H](C(=O)N[C@@H](CO)C(N)=O)NC(=O)[C@H](C(C)C)NC(=O)[C@H](CO)NC(=O)[C@H](Cc3c[nH]c4ccccc34)NC(=O)[C@H](CO)NC(=O)[C@@H](CCN)NC2=O)[C@@H](C)O)CCNC(=O)[C@H]([C@@H](C)O)NC(=O)[C@H](CCN)NC(=O)[C@H](CCN)NC1=O [Ex. 115] (I: H-[Hiv]CY[Dab]E[dDab]SWSVCS-NH2 / II: [Dab]T[Dap][Dab][Dab][dL]L[Dab][Dab]T; disulfide I:2-I:11; amide I:5-II:N; lactam II:4-II:C) | <1 |  | 0.0625 (≈ 0.0265 µM) | 0.125 (≈ 0.053 µM) | 0.125 (≈ 0.053 µM) | 0.25 (≈ 0.106 µM) | 0.0625 (≈ 0.0265 µM) | 0.0625 (≈ 0.0265 µM) | 0.125 (≈ 0.053 µM) | 0.0625 (≈ 0.0265 µM) |  |  |  |  | 0/3 died at 2 × 30 mg/kg
6 | CC(C)C[C@@H]1NC(=O)[C@@H](CC(C)C)NC(=O)[C@H](CCN)NC(=O)[C@@H](NC(=O)[C@H](CCN)NC(=O)[C@@H](NC(=O)[C@H](CCN)NC(=O)CC[C@@H]2NC(=O)[C@H](CCN)NC(=O)[C@H](C(C)C)NC(=O)[C@@H](NC(=O)[C@@H](O)C(C)C)CSSC[C@@H](C(=O)N[C@H](CO)Cc3ccc(O)cc3)NC(=O)[C@H](C(C)(C)C)NC(=O)[C@H](CO)NC(=O)[C@H](Cc3c[nH]c4ccccc34)NC(=O)[C@H](CCO)NC(=O)[C@@H](CCN)NC2=O)[C@@H](C)O)CCNC(=O)[C@H]([C@@H](C)O)NC(=O)[C@H](CCN)NC(=O)[C@H](CCN)NC1=O [Ex. 92] (I: H-[Hiv]CV[Dab]E[dDab][hSer]WS[Tle]C-Tyrosinol / II: [Dab]T[Dab][Dab][Dab][dL]L[Dab][Dab]T; disulfide I:2-I:11; amide I:5-II:N; lactam II:4-II:C) | <1 |  | 0.0625 (≈ 0.0261 µM) | 0.0625 (≈ 0.0261 µM) | 0.125 (≈ 0.0521 µM) | 0.125 (≈ 0.0521 µM) | 0.0625 (≈ 0.0261 µM) | 0.125 (≈ 0.0521 µM) | 0.125 (≈ 0.0521 µM) | 0.25 (≈ 0.104 µM) |  |  |  |  | 0/3 died at 2 × 30 mg/kg
7 | CC(=O)N[C@H](C(=O)N[C@H]1CSSC[C@@H](C(=O)N[C@@H](CO)C(N)=O)NC(=O)[C@H](C(C)C)NC(=O)[C@H](CO)NC(=O)[C@H](Cc2c[nH]c3ccccc23)NC(=O)CNC(=O)[C@@H](CCN)NC(=O)[C@H](CCC(=O)N[C@@H](CCN)C(=O)N[C@H](C(=O)N[C@@H](CN)C(=O)N[C@H]2CCNC(=O)[C@H]([C@@H](C)O)NC(=O)[C@H](CCN)NC(=O)[C@H](CCN)NC(=O)[C@H](CC(C)C)NC(=O)[C@@H](CC(C)C)NC(=O)[C@H](CCN)NC2=O)[C@@H](C)O)NC(=O)[C@H](CCN)NC(=O)[C@H](Cc2ccc(O)cc2)NC1=O)C(C)C [Ex. 350] (I: Ac-VCY[Dab]E[dDab]GWSVCS-NH2 / II: [Dab]T[Dap][Dab][Dab][dL]L[Dab][Dab]T; disulfide I:2-I:11; amide I:5-II:N; lactam II:4-II:C) | <1 | 0/3 died at 2 × 40 mg/kg |  | 0.125 (≈ 0.0528 µM) |  | 0.125 (≈ 0.0528 µM) |  |  | 0.0625 (≈ 0.0264 µM) | 0.125 (≈ 0.0528 µM) | 0.03125 | 0.125 | 0.125 | 0.03125 | 

— patent publication US11629171B2, “Beta-hairpin peptidomimetics” (POLYPHOR AG, priority 2017, dated 2023)
